# How the values were obtained:
# [1] = Compound was evaluated for its stability and enzymatic cleavage of dipeptide linker at pH5, 37 degree C.; type: ADME; conditions: pH 5
# [2] = Compound was evaluated for its stability and enzymatic cleavage of dipeptide linker at pH5, 37 degree C.; 5-6 h; type: ADME; conditions: pH 5
# [3] = Compound was evaluated for its stability and enzymatic cleavage of dipeptide linker at pH 7, 37 degree C.; 5-6 h; type: ADME
# [4] = test system: L2987; test: Compound was evaluated for antigen specific activity in vitro L2987 cell line; type: functional, cell-based; conditions: Homo sapiens
half-life [1] [min],half-life [2] [h],half-life [3] [h],Structure (SMILES),IC50 [4] [µM]
< 2,6,6,CC[C@]1(OC(=O)OCc2ccc(NC(=O)[C@H](CCCCN)NC(=O)[C@H](Cc3ccccc3)NC(=O)CCCCCN3C(=O)CC(SCCO)C3=O)cc2)C(=O)OCc2c1cc1n(c2=O)Cc2cc3ccccc3nc2-1 (some centres undefined),–
–,–,–,CC[C@@]1(O)C(=O)OCc2c1cc1n(c2=O)Cc2cc3ccccc3nc2-1 [CAMPTOTHECIN],0.4

# From ChEMBL document CHEMBL1135376, “Synthesis of an immunoconjugate of camptothecin” (Bioorg Med Chem Lett, 2002)
